For this test, the system named is 777334-354-R2-J4-PDC tumor spheroids with HUVEC/MSC, viability. Nature of the test: Anticancer human tumor 777334-354-R2-J4-PDC patient-derived pancreatic adenocarcinoma cell line growth inhibition [GQUAD]. To be noted: for viability, T/C: stronger effect = lower value. From the text: DNA G-quadruplex Stabilizer Agents in Combinations in Complex Spheroids
A high-throughput screen of multi-cell type tumor spheroids was designed to identify active combinations of DNA G-quadruplex stabilizer agents and targeted small molecules. Complex spheroids include a stromal component modeled by human endothelial cells (HUVEC) and fibroblasts modeled by human mesenchymal stem cells (MSCs). The concentration ranges selected for each drug and investigational agent were based upon clinically achievable concentrations if the clinical Cmax of the agent was known.
Compounds. The drugs and investigational agents: pidnarulex (CX-5461; NSC782164), APTO-253 (NSC789042), BRACO-19 (NSC847499), peposertib (NSC802822), ceralasertib (NSC780249), elimusertib (NSC800525), camonsertib (NSC841442), AZD-1390 (NSC803789), olaparib (NSC753686), talazoparib (NSC767125), ART-558 (NSC835418), sotorasib (NSC818433), MRTX-1133 (NSC836407), SN-38 (NSC673596), topotecan (NSC609699), etoposide (NSC141540), doxorubicin (NSC123127), gemcitabine (NSC613327), 5-fluorouracil (NSC19893), paclitaxel (NSC125973), vemurafenib (NSC761431), panobinostat (NSC761190), R-306465 (JNJ-16241199; NSC773264), adavosertib (NSC754352), TP-3654 (NSC805149), carboplatin (NSC241240), KSQ-4279 (NSC840948), and staurosporine (NSC755774) were obtained from the National Cancer Institute (NCI) Developmental Therapeutics Program Chemical Repository (34). The FDA-approved anticancer drug set is available from the NCI Developmental Therapeutics Program. […] The stock solutions were prepared in dimethyl sulfoxide (DMSO, Sigma-Aldrich, St. Louis, MO, cat. D2650) at 800-fold the tested concentration and stored at -70 degrees C prior to their use. All drugs and investigational agents were tested over a range starting from a high concentration at or near the clinical Cmax and decreasing in half-log increments. If the clinical Cmax for an agent had not been determined, the highest concentration tested was 10 microM.
2.3 Cell Culture. All cells were maintained in an incubator at 37 degrees C and 5% CO2 with 95% humidity. The PDC lines were cultured according to standard operating procedures established by the NCI PDMR. All PDCs were thawed and cultured in Matrigel-coated flasks prepared with a working solution of 1X Ham's F-12 nutrient mix, without supplementation (Invitrogen, cat. 11765054), 100 U/mL penicillin-streptomycin (Invitrogen, cat. 15140122), and 2.5% Matrigel (Corning Inc., cat. 354248) for the first three passages. The 857933-349-R-J2-PDC line was cultured in 6C/Colon 1B media, which includes advanced DMEM/F-12 (Thermo Fisher Scientific, cat. 12634028), 10 mM HEPES (Thermo Fisher Scientific, cat. 15630080), 1X GlutaMAX supplement (Thermo Fisher Scientific, cat. 35050061), 0.1 mg/mL primocin (InvivoGen, cat. ant-pm-2), 10% defined fetal bovine serum, heat inactivated (HyClone Laboratories Inc., cat. SH30070.03HI), 50% L-WRN conditioned media (ATCC, cat. CRL-3276), 1.25 mM N-Acetyl-L-cysteine (Sigma-Aldrich, cat. A9165), 10 mM nicotinamide (Sigma-Aldrich, cat. N0636), 1X B-27 supplement (Thermo Fisher Scientific, cat. 17504044), 1X N-2 supplement (Thermo Fisher Scientific, cat. 17502048), 10 microM Y-27632 dihydrochloride (Tocris Bioscience, cat. 1254), and 50 ng/mL human EGF recombinant protein (Thermo Fisher Scientific, cat. PHG0311). The 485176-168-R4-J1-PDC line was cultured in Panc media, which includes all 6C/Colon 1B media components plus 100 ng/mL human FGF-10 (Thermo Fisher Scientific, cat. 100-26), 500 nM SB-431542 (Selleckchem, cat. S1067), and gastrin (Tocris, cat. 3006).
[…]

Each structure is given as a SMILES string. Several values for one entry are separate records, joined by “and”; a condition that tells them apart may be missing. Equal values may be shown once.
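Also: spheroids exposed to compounds for 7 days before readout.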

`C=CC(=O)N1CCN(c2nc(=O)n(-c3c(C)ccnc3C(C)C)c3nc(-c4c(O)cccc4F)c(F)cc23)C(C)C1` (stereo not given): the viability, T/C runs as follows: (compound 0.0316 µM) 87.7% and 105% and 106%; (compound 0.1 µM) 103% and 97.4% and 81.4%; (compound 0.316 µM) 95.8% and 89.4% and 109%; (compound 1 µM) 96.2% and 111% and 105%; (compound 3.16 µM) 113% (2×) and 100%; (compound 10 µM) 115% and 100% and 101%. In addition, the IC50 (curve of compound) was over 10000 nM.

Take `CC(=O)O[C@H]1C(=O)[C@@]2(C)[C@H]([C@H](OC(=O)c3ccccc3)[C@]3(O)C[C@H](OC(=O)[C@H](O)[C@@H](NC(=O)c4ccccc4)c4ccccc4)C(C)=C1C3(C)C)[C@]1(OC(C)=O)CO[C@@H]1C[C@@H]2O`: the viability, T/C (compound 0.0316 µM) is 78.3% and 74% and 80.3%; the viability, T/C (compound 0.1 µM) is 61.3% and 56% and 57.1%; the viability, T/C (compound 0.316 µM) was 47.8% and 50% and 43.4%; the viability, T/C (compound 1 µM) is 46% and 46.2% and 44.1%; the viability, T/C (compound 3.16 µM) was 45.2% and 46.1% and 39.9%; the viability, T/C (compound 10 µM) is 47.9% and 45% and 51.3%. In addition, the IC50 (curve of compound) was 260 nM and 276 nM and 193 nM.

In the case of `CC(C)n1c(=O)n(C)c2cnc3cc(F)c(-c4ccc(OCCCN5CCCCC5)nc4)cc3c21`, the viability, T/C (compound 0.0316 µM) is 105% and 94.1% and 104%; the viability, T/C (compound 0.1 µM) was 106% and 95% and 101%; the viability, T/C (compound 0.316 µM) is 113% (2×) and 111%; the viability, T/C (compound 1 µM) is 104% and 99.3% and 108%; the viability, T/C (compound 3.16 µM) is 110% and 98.5% and 112%; the viability, T/C (compound 10 µM) was 101% and 94.6% and 86.2%. Further, where the note is “curve of compound”, the 50% inhibitory concentration (IC50) was over 10000 nM.

In the case of `CC1COCCN1c1cc(-c2ccnn2C)c2ccnc(-c3ccn[nH]3)c2n1` (stereo not given), the viability, T/C is 94.2% and 88.2% and 75% (compound 0.0316 µM); 73.7% and 75.3% and 83.1% (compound 0.1 µM); 65.4% and 62.4% and 50.8% (compound 0.316 µM); 47.7% and 49.3% and 49.1% (compound 1 µM); 37.1% and 41.5% and 48.4% (compound 3.16 µM); 26.8% and 33.3% and 28.8% (compound 10 µM). The IC50 (curve of compound) is 901 nM and 1020 nM and 1110 nM.

Consider `CC1COCCN1c1cc(C2(O)CC3CCC(C2)O3)c2cnn(-c3ccn[nH]3)c2n1` (stereo not given), for which the viability, T/C reads like this: (compound 0.0316 µM) 93.3% and 104% and 95%; (compound 0.1 µM) 76.1% and 79.5% and 78.4%; (compound 0.316 µM) 52.4% and 54.4% and 51.5%; (compound 1 µM) 39.1% and 38.5% and 37.8%; (compound 3.16 µM) 30.1% and 36.1% and 34.6%; (compound 10 µM) 20.1% and 19.8% and 21.7%. Moreover, the half-maximal inhibitory concentration (IC50) (curve of compound) is 447 nM and 516 nM and 435 nM.

Consider `CC1COCCN1c1cc(C2(S(C)(=N)=O)CC2)nc(-c2ccnc3[nH]ccc23)n1` (stereo not given), for which the viability, T/C runs as follows: (compound 0.0316 µM) 112% and 90.9% and 98.4%; (compound 0.1 µM) 106% (2×) and 86.8%; (compound 0.316 µM) 105% and 99.7% and 115%; (compound 1 µM) 105% and 84% and 101%; (compound 3.16 µM) 89.7% and 86.5% and 112%; (compound 10 µM) 63% and 58.7% and 63.3%. The IC50 (curve of compound) is over 10000 nM.

With `CC[C@@]1(O)C(=O)OCc2c1cc1n(c2=O)Cc2cc3c(CN(C)C)c(O)ccc3nc2-1`, the viability, T/C reads like this: (compound 0.000999 µM) 102% and 101% and 87.9%; (compound 0.00316 µM) 98.6% and 112% and 91.4%; (compound 0.00999 µM) 95.8% and 97.9% and 93.1%; (compound 0.0316 µM) 87.9% and 83.3% and 90.2%; (compound 0.0999 µM) 68.3% and 59.5% and 61.7%; (compound 0.316 µM) 39.7% and 35.4% and 42.7%. Further, the IC50 (curve of compound) was 209 nM and 154 nM and 203 nM.

With `CCc1c2c(nc3ccc(O)cc13)-c1cc3c(c(=O)n1C2)COC(=O)[C@]3(O)CC`, the viability, T/C reads like this: (compound 0.000999 µM) 87.3% and 77.7% and 87.8%; (compound 0.00316 µM) 62.7% and 59.7% and 52.4%; (compound 0.00999 µM) 38% and 36% and 36.3%; (compound 0.0316 µM) 24% and 23.4% and 23.9%; (compound 0.0999 µM) 15.9% and 15.4% and 13.3%; (compound 0.316 µM) 8.77% and 9.22% and 10.1%. Further, the IC50 (curve of compound) was 5.78 nM and 5.06 nM and 4.18 nM.

As for `CN(C)c1ccc(Nc2c3ccc(NC(=O)CCN4CCCC4)cc3nc3cc(NC(=O)CCN4CCCC4)ccc23)cc1`, the viability, T/C runs as follows: (compound 0.0316 µM) 98.1% [middle of 12 runs]; (compound 0.1 µM) 101% [middle of 12 runs]; (compound 0.316 µM) 94.1% [middle of 12 runs]; (compound 1 µM) 94.9% [middle of 12 runs]; (compound 3.16 µM) 90.3% [middle of 12 runs]; (compound 10 µM) 81.3% [middle of 12 runs]. Further, the IC50 (compound alone, run of 03/26/2024) is over 10000 nM.

With `COc1cc(C2c3cc4c(cc3C(OC3OC5COC(C)OC5C(O)C3O)C3COC(=O)C23)OCO4)cc(OC)c1O` (stereo not given), the viability, T/C runs as follows: (compound 0.0316 µM) 94.6% and 85% and 95.3%; (compound 0.1 µM) 88.4% and 97.9% and 91.6%; (compound 0.316 µM) 88.8% and 89.8% and 94.8%; (compound 1 µM) 71.9% and 74.2% and 72.8%; (compound 3.16 µM) 69.3% and 64% and 61.6%; (compound 10 µM) 41.3% and 38.2% and 35.7%. The 50% inhibitory concentration (IC50) (curve of compound) was 6820 nM and 5690 nM and 5030 nM.

The term viability, T/C denotes the ratio of treated to control. One may read the IC50 as the point on the concentration scale where inhibition reaches its midpoint.

The values above are taken from PubChem BioAssay AID2060499 (Molecular Pharmacology Branch, DTP, NCI, 2025).
